From patent EP1561465A2, “Methods of use of fluoroquinolone compounds against bacteria” (LG Life Sciences, Ltd., priority 1999, dated 2001)
Values after ≈ are worked out from the molar mass of the structure shown. Where two headings read alike, the source gives them in different places.

What was measured:
Type in all cases: cell-based
Salmonella spp. = test: MIC by agar dilution (NCCLS M7-A4), 288 enteropathogenic isolates, eight quinolones; conditions: for MIC: ciprofloxacin MIC ≥[…], read-out: MIC
Hafnia alvei = test: as above; conditions: Hafnia alvei (n = 32)
Haemophilus influenzae [1] = test: MIC by agar dilution (NCCLS), 411 isolates Buenos Aires 1998-99; conditions: Haemophilus influenzae (n = 65)
Streptococcus pneumoniae [2] = test: MIC by NCCLS reference broth microdilution, 450 respiratory tract pathogens; conditions: Streptococcus pneumoniae
Haemophilus influenzae [3] = test: as above; conditions: Haemophilus influenzae; for MIC90: read-out: MIC90
Klebsiella pneumoniae = test: as above; conditions: for MIC50 / MIC90: Klebsiella pneumoniae
Haemophilus influenzae [4] = test: MIC by broth microdilution (NCCLS), dried MicroScan panels, clinical isolates 1998-1999; conditions: for MIC90: Haemophilus influenzae
Streptococcus pneumoniae [5] = test: MIC by two-fold serial agar dilution, Sensitivity Disk agar-N (Kitasato isolates); conditions: Streptococcus pneumoniae; for MIC: read-out: MIC Range; for MIC50: read-out: MIC50
[6] = Streptococcus pneumoniae (n = 100)
[7] = erythromycin resistant M phenotype (n = 16)
[8] = erythromycin resistant MLSB phenotype (n = 16)
[9] = penicillin intermediate (n = 16)
[10] = penicillin susceptible (n = 20)
[11] = Haemophilus influenzae (n = 100)
[12] = extended spectrum β-lactamase negative (n = 30)
[13] = extended spectrum β-lactamase positive (n = 20)
[14] = Haemophilus influenzae (300 isolates)

`N[C@@H]1[C@H]2CN(c3nc4c(cc3F)c(=O)c(C(=O)O)cn4-c3ccc(F)cc3F)C[C@@H]12` [Trovafloxacin, trovafloxacin] gave an MIC (Salmonella spp.; S. hadar (n = 2)) of 0.5 µg/mL (≈ 1.2 µM), an MIC (Salmonella spp.; S. newport (n = 1)) of 0.5 µg/mL (≈ 1.2 µM) and an MIC (Salmonella spp.; S. virchow (n = 2)) of 0.25 µg/mL (≈ 0.6 µM). The “% Susceptible” value (Salmonella spp.; Salmonella spp. (n = 106)) was 100%, the MIC50 (Salmonella spp.; Salmonella spp. (n = 106)) was 0.06 µg/mL (≈ 0.144 µM) and the MIC90 (Salmonella spp.; Salmonella spp. (n = 106)) was 0.25 µg/mL (≈ 0.6 µM). For the same compound, the “MIC Range” value (Salmonella spp.; Salmonella spp. (n = 106)) was ≤0.015 to 1 µg/mL, the MIC (Salmonella spp.; Salmonella, S. tshiongwe (n = 1)) was 1 µg/mL (≈ 2.4 µM) and the “% Susceptible” value (Hafnia alvei) was 100%. The MIC50 (Hafnia alvei) was 0.06 µg/mL (≈ 0.144 µM), the MIC90 (Hafnia alvei) was 0.06 µg/mL (≈ 0.144 µM) and the “MIC Range” value (Hafnia alvei) was 0.03 to 0.12 µg/mL. For the same compound, the MIC90 (Haemophilus influenzae [1]) was 0.03 µg/mL (≈ 0.0721 µM), the “MIC Range” value (Haemophilus influenzae [1]) was ≤0.004 to 0.5 µg/mL and the MIC (Streptococcus pneumoniae [2]; [6]) was 0.03 to 0.25 µg/mL (≈ 0.0721 to 0.6 µM). It also gave an MIC50 (Streptococcus pneumoniae [2]; [6]) of 0.12 µg/mL (≈ 0.288 µM), an MIC90 (Streptococcus pneumoniae [2]; [6]) of 0.12 µg/mL (≈ 0.288 µM) and an MIC (Streptococcus pneumoniae [2]; [7]) of 0.06 to 0.12 µg/mL (≈ 0.144 to 0.288 µM). The MIC50 (Streptococcus pneumoniae [2]; [7]) was 0.06 µg/mL (≈ 0.144 µM), the MIC90 (Streptococcus pneumoniae [2]; [7]) was 0.12 µg/mL (≈ 0.288 µM) and the MIC (Streptococcus pneumoniae [2]; [8]) was 0.06 to 0.12 µg/mL (≈ 0.144 to 0.288 µM). For the same compound, the MIC50 (Streptococcus pneumoniae [2]; [8]) was 0.06 µg/mL (≈ 0.144 µM), the MIC90 (Streptococcus pneumoniae [2]; [8]) was 0.12 µg/mL (≈ 0.288 µM) and the MIC (Streptococcus pneumoniae [2]; multi-drug resistant (n = 16)) was 0.06 to 0.12 µg/mL (≈ 0.144 to 0.288 µM). It also gave an MIC50 (Streptococcus pneumoniae [2]; multi-drug resistant (n = 16)) of 0.06 µg/mL (≈ 0.144 µM), an MIC90 (Streptococcus pneumoniae [2]; multi-drug resistant (n = 16)) of 0.12 µg/mL (≈ 0.288 µM) and an MIC (Streptococcus pneumoniae [2]; [9]) of 0.06 to 0.12 µg/mL (≈ 0.144 to 0.288 µM). For the same compound, the MIC50 (Streptococcus pneumoniae [2]; [9]) was 0.12 µg/mL (≈ 0.288 µM), the MIC90 (Streptococcus pneumoniae [2]; [9]) was 0.12 µg/mL (≈ 0.288 µM) and the MIC (Streptococcus pneumoniae [2]; penicillin resistant (n = 18)) was 0.06 to 0.25 µg/mL (≈ 0.144 to 0.6 µM). For the same compound, the MIC50 (Streptococcus pneumoniae [2]; penicillin resistant (n = 18)) was 0.12 µg/mL (≈ 0.288 µM), the MIC90 (Streptococcus pneumoniae [2]; penicillin resistant (n = 18)) was 0.12 µg/mL (≈ 0.288 µM) and the MIC (Streptococcus pneumoniae [2]; [10]) was 0.06 to 0.12 µg/mL (≈ 0.144 to 0.288 µM). The MIC50 (Streptococcus pneumoniae [2]; [10]) was 0.12 µg/mL (≈ 0.288 µM), the MIC90 (Streptococcus pneumoniae [2]; [10]) was 0.12 µg/mL (≈ 0.288 µM) and the MIC (Haemophilus influenzae [3]; [11]) was 0.0075 to 0.25 µg/mL (≈ 0.018 to 0.6 µM). The MIC50 (Haemophilus influenzae [3]; [11]) was ≤ 0.00075 µg/mL, the MIC90 (Haemophilus influenzae [3]; [11]) was 0.06 µg/mL (≈ 0.144 µM) and the MIC (Haemophilus influenzae [3]; β-lactamase negative (n = 80)) was 0.0075 to 0.25 µg/mL (≈ 0.018 to 0.6 µM). The MIC50 (Haemophilus influenzae [3]; β-lactamase negative (n = 80)) was ≤ 0.0075 µg/mL, the MIC90 (Haemophilus influenzae [3]; β-lactamase negative (n = 80)) was 0.015 µg/mL (≈ 0.036 µM) and the MIC (Haemophilus influenzae [3]; β-lactamase positive (n = 20)) was 0.0075 to 0.06 µg/mL (≈ 0.018 to 0.144 µM). For the same compound, the MIC50 (Haemophilus influenzae [3]; β-lactamase positive (n = 20)) was ≤ 0.0075 µg/mL, the MIC90 (Haemophilus influenzae [3]; β-lactamase positive (n = 20)) was 0.06 µg/mL (≈ 0.144 µM) and the “MIC Range” value (Klebsiella pneumoniae; Klebsiella pneumoniae (n = 50)) was ≤0.0075 to 0.5 µg/mL. The MIC50 (Klebsiella pneumoniae; Klebsiella pneumoniae (n = 50)) was 0.06 µg/mL (≈ 0.144 µM), the MIC90 (Klebsiella pneumoniae; Klebsiella pneumoniae (n = 50)) was 0.5 µg/mL (≈ 1.2 µM) and the MIC50 (Klebsiella pneumoniae; [12]) was 0.06 µg/mL (≈ 0.144 µM). The MIC90 (Klebsiella pneumoniae; [12]) was 0.12 µg/mL (≈ 0.288 µM), the MIC50 (Klebsiella pneumoniae; [13]) was 0.5 µg/mL (≈ 1.2 µM) and the MIC90 (Klebsiella pneumoniae; [13]) was 0.5 µg/mL (≈ 1.2 µM). For the same compound, the “MIC Range” value (Klebsiella pneumoniae; [12]) was ≤0.0075 to 0.015 µg/mL, the “MIC Range” value (Klebsiella pneumoniae; [13]) was 0.06 to 0.5 µg/mL and the MIC50 (Haemophilus influenzae [4]; [14]) was ≤ 0.015 µg/mL. The “MIC Range” value (Haemophilus influenzae [4]; [14]) was ≤0.015 to 0.25 µg/mL, the MIC90 (Haemophilus influenzae [4]; [14]) was ≤ 0.015 µg/mL and the MIC90 (Haemophilus influenzae [4]; β-lactamase negative (234)) was ≤ 0.015 µg/mL. It also gave an MIC90 (Haemophilus influenzae [4]; β-lactamase positive (66)) of 0.03 µg/mL (≈ 0.0721 µM), an MIC90 (Streptococcus pneumoniae [5]) of 0.125 µg/mL (≈ 0.3 µM) and an MIC90 (Streptococcus pneumoniae [5]; 18 h, Ciprofloxacin-resistant (21), ciprofloxacin MIC ≥8 µg/ml, read-out: MIC90) of 4 µg/mL (≈ 9.61 µM). The MIC (Streptococcus pneumoniae [5]; 18 h, Ciprofloxacin-susceptible (94)) was 0.031 to 0.25 µg/mL (≈ 0.0745 to 0.6 µM), the MIC (Streptococcus pneumoniae [5]; 18 h, Erythromycin-resistant (37)) was 0.063 to 2 µg/mL (≈ 0.151 to 4.8 µM) and the MIC (Streptococcus pneumoniae [5]; 18 h, Minocycline-resistant (37)) was 0.063 to 2 µg/mL (≈ 0.151 to 4.8 µM). It also gave an MIC (Streptococcus pneumoniae [5]; 18 h, Penicillin-resistant (19)) of 0.031 to 0.25 µg/mL (≈ 0.0745 to 0.6 µM), an MIC (Streptococcus pneumoniae [5]; 18 h) of 0.125 to 4 µg/mL (≈ 0.3 to 9.61 µM) and an MIC50 (Streptococcus pneumoniae [5]; Ciprofloxacin-resistant (21)) of 2 µg/mL (≈ 4.8 µM). For the same compound, the MIC50 (Streptococcus pneumoniae [5]; Ciprofloxacin-susceptible (94)) was 0.063 µg/mL (≈ 0.151 µM).
